Reference: paper PMC8261254 (Asian Journal of Pharmaceutical Sciences, 2021)
≈ marks a conversion by molar mass, not a printed value. Read-outs that look alike come from different tables or passages of the source.

Legend:
[1] = PTX solubility in PLHNs / water; type: physicochemical
[2] = cited from earlier work

solubility [1]: ~6 µg/mL (≈ 7.03 µM)
Compound: CC(=O)O[C@H]1C(=O)[C@@]2(C)[C@H]([C@H](OC(=O)c3ccccc3)[C@]3(O)C[C@H](OC(=O)[C@H](O)[C@@H](NC(=O)c4ccccc4)c4ccccc4)C(C)=C1C3(C)C)[C@]1(OC(C)=O)CO[C@@H]1C[C@@H]2O [PTX, Paclitaxel]
Plasma concentration threshold above which PTX is pharmacologically active [2]: 0.1 µM | Plasma concentration threshold above which PTX is pharmacologically active ([2]; equivalent of 0.1 µM): 85.3 ng/ml
